Source: PubChem BioAssay AID743353 (Broad Institute, 2014)
Calls of active or inactive are those of the source.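 Rule for the calls: active = compound that lowers cell viability with a fitted AC50 at most twice its highest valid tested dose; inconclusive = flat curve with 30 to 70% loss, or poor fit; inactive = the rest.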

Test system: not listed separately
Test: viability loss in HEK293 cells – cell-based, luminescence, dry powder, set 13, cytotoxicity control, dose response (AID 743353)
Conditions: HEK293T viability, ATP luminescence CellTiter-Glo, 72 h; at 26 µM (top of the series)

| Structure (SMILES) | activity change, negative = cytotoxicity |
| --- | --- |
| CC(=O)c1ccc(N2CCN(S(=O)(=O)c3ccc4c(c3)OCO4)CC2)cc1 | -12.5% (inactive) |
| CC(=O)c1ccc(N2CCN(C(=O)c3cc(Cl)c4c(c3)OCO4)CC2)cc1 | -6.52% (inactive) |
| CC(=O)c1ccc(N2CCN(C(=O)c3ccc4c(c3)OCO4)CC2)cc1 | -2.01% (inactive) |
| CC(=O)c1ccc(N2CCN(C(=O)c3ccc4ocnc4c3)CC2)cc1 | -8.67% (inactive) |
| N#Cc1ccc(N2CCN(C(=O)c3ccc4c(c3)OCO4)CC2)cc1 | -2.51% (inactive) |
| CC(=O)c1ccc(N2CCN(C(=O)c3cc4c(cc3Cl)OCO4)CC2)cc1 | -7.51% (inactive) |
| CC(=O)c1ccc(N2CCN(C(=O)c3ccc4c(c3C)OCO4)CC2)cc1 | -17% (inactive) |
| COc1ccc(C(=O)N2CCN(c3ccc(C(C)=O)cc3)CC2)cc1OC | -1.09% (inactive) |
| CC(=O)c1ccc(N2CC3CC2CN3C(=O)c2ccc3c(c2)OCO3)cc1 (stereo unspecified) | 4.9% (inactive) |
| CC(=O)c1ccc(N2CCCN(C(=O)c3ccc4c(c3)OCO4)CC2)cc1 | 0.038% (inactive) |
| CC(=O)c1ccc(N2CCN(C(=O)c3ccc4snnc4c3)CC2)cc1 | -9.09% (inactive) |
| CC(=O)c1ccc(N2CCN(C(=O)Nc3ccc4c(c3)OCO4)CC2)cc1 | -0.537% (inactive) |
| COc1cc2c(cc1C(=O)N1CCN(c3ccc(C(C)=O)cc3)CC1)OCO2 | -3.95% (inactive) |
| CN(C)S(=O)(=O)c1ccc(N2CCN(C(=O)c3ccc4c(c3)OCO4)CC2)cc1 | -16.1% (inactive) |
| O=C(c1ccc2c(c1)OCO2)N1CCN(c2ccc(OC(F)(F)F)cc2)CC1 | -10.3% (inactive) |
| CC(=O)c1ccc(N2CCN(C(=O)c3cc4c(cn3)OCO4)CC2)cc1 | -11.9% (inactive) |
| CC(=O)c1ccc(N2CCN(C(=O)c3cccc4c3OCO4)CC2)cc1 | 0.216% (inactive) |
| CC(=O)c1ccc(N2CCN(C(=O)c3ccc(Cl)c(Cl)c3)CC2)cc1 | -9.71% (inactive) |
| O=C(c1ccc2c(c1)OCO2)N1CCN(c2ccc(S(=O)(=O)C(F)F)cc2)CC1 | -6.54% (inactive) |
| CC(=O)c1ccc(N2CCN(C(=O)c3ccc4c(c3)OC(F)(F)O4)CC2)cc1 | -14.8% (inactive) |
| COc1cc(C(=O)N2CCN(c3ccc(C(C)=O)cc3)CC2)cc2c1OCO2 | -13.3% (inactive) |
| O=C(c1ccc2c(c1)OCO2)N1CCN(c2ccc(C(F)(F)F)cc2)CC1 | -8.83% (inactive) |
| CS(=O)(=O)c1ccc(N2CCN(C(=O)c3ccc4c(c3)OCO4)CC2)cc1 | 3.29% (inactive) |

Test system: HEK293T viability, ATP luminescence CellTiter-Glo, 72 h
Test: as above
Conditions: not given

| Structure (SMILES) | AC50 |
| --- | --- |
| CC(=O)c1ccc(N2CCN(C(=O)c3ccc4c(c3)OC(C)(C)O4)CC2)cc1 | > 52 µM (inactive) |
| O=C(c1ccc2c(c1)OCO2)N1CCN(c2ccc(S(=O)(=O)C(F)(F)F)cc2)CC1 | > 52 µM (inactive) |
| CC(=O)c1ccc(N2CCN(C(=O)c3cc4c(cc3C)OCO4)CC2)cc1 | > 52 µM (inactive) |
